{
  "source": "patent US20120245188A1",
  "about": "“METHODS OF TREATING MEMORY LOSS AND ENHANCING MEMORY PERFORMANCE” (priority 2010, published 2012)",
  "key": {"[1]": {"system": "seventeen month old male Fischer-344 rats", "experiment": "Spatial reference memory, Morris Water Maze in aged rats", "format": "in vivo, rat", "description": "Working memory can also be tested using the Morris water maze. In general, the Morris water maze is a large round tub of opaque water with […] located 1-2 cm under the water's surface. The rat is placed on a start platform. The rat swims around until it finds the other platform to stand on. External cues, such as patterns or the standing researcher, are placed around the pool in the same spot every time to help the rat learn where the end platform is. The researcher measures how long it takes for a rat to find hidden platform, by changing or moving and using different spatial cues. The Morris water maze tests the spatial learning, cognitive maps and memory. The rats under the Morris water maze test may be given particular drugs or treatment conditions to see if these impair or enhance short-term memory. In one embodiment, the subject may be administered a pharmaceutical composition comprising SB 239063. The role of SB239063 on spatial memory performance was tested in the aged rat model. […] Dosing was initiated three days prior to testing and continued throughout the experiment until sacrifice (FIG. 1). Rats were tested on a maze battery including the spatial reference memory Morris maze (MM), and a delay match to sample task (DMS) where the spatial location of the platform needed to be updated on a daily basis, thereby evaluating short term memory (FIG. 2). Spatial Reference Memory—Morris Water Maze: For the Morris Water Maze, 6 trials per day for 3 days were carried out. […] Mean (±Standard Error) swim distance across all days of testing for all rats are depicted in FIG. 3."}, "[2]": {"system": "seventeen month old male Fischer-344 rats", "experiment": "Working memory, Delay Match to Sample water maze in aged rats", "format": "in vivo, rat", "conditions": "high dose 30 mg/kg/day i.p.", "protocol": "Other methods of evaluating spatial and visual working memory include Delayed-Match to Sample (DMS) asymmetrical 3-choice task, which is illustrated in detail in the Example section. The visible platform task was used to confirm that animals have the ability to perform the procedural components of water-escape maze testing, including the visual and motoric capacities necessary to swim towards and climb onto a platform. The role of SB239063 on spatial memory performance was tested in the aged rat model. […] Dosing was initiated three days prior to testing and continued throughout the experiment until sacrifice (FIG. 1). Rats were tested on a maze battery including the spatial reference memory Morris maze (MM), and a delay match to sample task (DMS) where the spatial location of the platform needed to be updated on a daily basis, thereby evaluating short term memory (FIG. 2). […] There was a significant Trial×Treatment Interaction in the process, and the swim distance F(5,10)=2.298 (p=0.0151). The high-dose receiving group learned the task faster, indicated by committing fewer errors compared to vehicle-only rats on trial 3 (FIG. 4B)."}, "[3]": {"system": "adjuvant-induced arthritis", "conditions": "10 mg/kg, administered orally, rats; cited from earlier work"}, "[4]": {"system": "moderate stroke", "conditions": "oral administration of 15 mg/kg before moderate stroke; cited from earlier work"}, "[5]": {"system": "cultured neurons", "conditions": "cited from earlier work"}, "[6]": {"target": "β form of p38 MAPK (Homo sapiens, UniProt Q15759)", "sequence (Q15759 whole entry)": "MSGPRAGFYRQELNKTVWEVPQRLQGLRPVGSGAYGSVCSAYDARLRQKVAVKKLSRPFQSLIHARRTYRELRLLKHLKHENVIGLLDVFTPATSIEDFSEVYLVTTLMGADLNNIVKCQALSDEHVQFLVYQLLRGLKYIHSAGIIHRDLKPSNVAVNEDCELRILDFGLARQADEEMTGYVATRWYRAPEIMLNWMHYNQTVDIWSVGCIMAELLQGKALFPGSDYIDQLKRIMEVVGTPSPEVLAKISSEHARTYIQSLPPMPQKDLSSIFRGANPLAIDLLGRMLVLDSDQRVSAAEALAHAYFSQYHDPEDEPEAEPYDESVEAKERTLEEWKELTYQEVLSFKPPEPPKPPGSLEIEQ", "conditions": "cited from earlier work"}},
  "data": [
    {"smiles": "COc1nccc(-c2c(-c3ccc(F)cc3)ncn2[C@H]2CC[C@H](O)CC2)n1", "note": "[SB239063, trans-1-(4-hydroxycyclohexyl)-4-(4-fluorophenyl)-5-(2-methoxypyridimidin-4-yl)imidazole]", "values": [
      {"measurement": "localization to the platformed quadrant during the probe trial by the last day of testing", "setting": "[1]; all groups (15 and 30 mg/kg), p<0.005", "result": "localized to the platformed quadrant"},
      {"measurement": "linear trend for swim distance scores across days", "setting": "[1]; high dose 30 mg/kg daily i.p., F(1,10)=1.531, p=0.244", "result": "did not show a linear trend"},
      {"measurement": "Morris Water Maze spatial reference memory performance as days progressed", "setting": "[1]; high dose 30 mg/kg/day i.p.", "result": "impaired"},
      {"measurement": "linear trend for swim distance scores across days", "setting": "[1]; low dose 15 mg/kg daily i.p., F(1,10)=19.253, p=0.001", "result": "showed a significant linear trend"},
      {"measurement": "Morris Water Maze spatial reference memory performance as days progressed", "setting": "[1]; low dose 15 mg/kg/day i.p.", "result": "exhibited significant learning"},
      {"measurement": "Three Choice Task errors on trial 3 compared to vehicle-only rats", "setting": "[2]; Fisher post hoc p=0.011", "result": "fewer errors"},
      {"measurement": "performance on DMS compared to vehicle-treated animals (learning of the new platform location)", "setting": "[2]; p=0.01", "result": "enhanced performance"},
      {"measurement": "reduction of adjuvant-induced arthritis", "setting": "[3]", "result": 51, "unit": "%"},
      {"measurement": "reduction of infarct volume", "setting": "[4]", "result": 48, "unit": "%"},
      {"measurement": "reduction of neurological deficits", "setting": "[4]", "result": 42, "unit": "%"},
      {"measurement": "protection against mild excitotoxic neuronal injury caused by NMDA", "setting": "[5]; NMDA (N-methyl D-aspartate)", "result": "protect against mild excitotoxic neuronal injury"},
      {"measurement": "protection against cell death induced by oxygen glucose deprivation (OGD) or magnesium deprivation", "setting": "[5]; cultured neurons", "result": "substantial protection against cell death"},
      {"measurement": "inhibition of β form of p38 MAPK", "setting": "[6]", "result": "inhibits"}
    ]}
  ]
}
